Reference: patent US20240398805A1, “QUINAZOLINE DERIVED COMPOUNDS AS EGFR INHIBITORS AND THEIR USES THEREOF” (ACCUTAR BIOTECHNOLOGY INC., priority 2021, published 2024)

Assays:
Type in all cases: cell-based
[1] = tested on: HCC827-SVD cells (human EGFR exon 20 insertion mutant D770_N771 insSVD); test: Cell growth inhibition (CellTiter-Glo, 3 days) in HCC827-SVD; conditions: 72 h, 3 days after administration
How it was run: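 HCC827 cells carrying lentiviral codon-optimized EGFR D770_N771 insSVD, with endogenous EGFR knocked out by CRISPR (single clone), seeded at 5000 cells/well in RPMI with 10% FBS. Viability read by CellTiter-Glo luminescence.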

[2] = tested on: HCC827-ASV cells (human EGFR exon 20 insertion mutant A769_D770insASV); test: Cell growth inhibition (CellTiter-Glo, 3 days) in HCC827-ASV; conditions: 72 h, 3 days after administration
How it was run: (§1)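 Growth inhibition used a CellTiter-Glo luminescence read-out after 3 days of compound exposure at various concentrations. Cells were plated the day before at 5000/well in RPMI plus 10% FBS. The lines are HCC827 transduced by lentivirus with codon-optimized EGFR ASV or ERBB2 YVMA exon 20 insertions.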

[3] = tested on: HCC827-YVMA cells (human ERBB2 exon20 insertion mutant A775_G776ins YVMA); test: Cell growth inhibition (CellTiter-Glo, 3 days) in HCC827-YVMA; conditions: 72 h, 3 days after administration
How it was run: as §1

HCC827 cells = test: Cell growth inhibition (CellTiter-Glo, 3 days) in HCC827; conditions: Homo sapiens, 72 h, 3 days after administration
How it was run: (§2)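 HCC827 cells in RPMI/10% FBS and A431 cells in DMEM/10% FBS were seeded at 5000 cells/well and left overnight. Compound was then added over a concentration range for 3 days of incubation, and viability was read by CellTiter-Glo luminescence.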

A431 cells = test: Cell growth inhibition (CellTiter-Glo, 3 days) in A431; conditions: Homo sapiens, A-431, 72 h, 3 days after administration
How it was run: as §2

Structure (SMILES) | GI50 [1] [nM] | GI50 [2] [nM] | GI50 [3] [nM] | GI50 (HCC827 cells) [nM] | GI50 (A431 cells) [nM]
C=CC(=O)N1CCC(Oc2cc3c(Nc4ccc(Oc5ccnc(N6CCN(C(C)C)CC6)c5)cc4F)ncnc3cc2OC)CC1 [Example 157, 1-(4-((4-((2-fluoro-4-((2-(4-isopropylpiperazin-1-yl)pyridin-4-yl)oxy)phenyl)amino)-7-methoxyquinazolin-6-yl)oxy)piperidin-1-yl)prop-2-en-1-one] | ≥ 1000 | ≥ 1000 | ≥ 1000 | ≥ 1000 | ≥ 1000
C=CC(=O)N1CCC(Nc2cc3c(Nc4ccc(Oc5ccnc(N6C[C@H](C)C[C@H](C)C6)c5)cc4F)ncnc3cc2OC)CC1 [Example 158, 1-(4-((4-((4-((2-((3S,5R)-3,5-dimethylpiperidin-1-yl)pyridin-4-yl)oxy)-2-fluorophenyl)amino)-7-methoxyquinazolin-6-yl)amino)piperidin-1-yl)prop-2-en-1-one] | 60 to 100 | 100 to 300 | 300 to 600 | 600 to 1000 | ≥ 1000
C=CC(=O)N1CCC(Oc2cc3c(Nc4ccc(Oc5ccnc(N6CC[C@@H](N(C)C)C6)c5)cc4F)ncnc3cc2OC)CC1 [Example 162, (R)-1-(4-((4-((4-((2-(3-(dimethylamino)pyrrolidin-1-yl)pyridin-4-yl)oxy)-2-fluorophenyl)amino)-7-methoxyquinazolin-6-yl)oxy)piperidin-1-yl)prop-2-en-1-one] | 100 to 300 | 100 to 300 | 100 to 300 | 100 to 300 | ≥ 1000
C=CC(=O)N1CCC(Oc2cc3c(Nc4ccc(Oc5cc(N6C[C@@H](C)O[C@@H](C)C6)ncc5Cl)cc4F)ncnc3cc2OC)CC1 [Example 166, 1-(4-((4-((4-((5-chloro-2-((2R,6S)-2,6-dimethylmorpholino)pyridin-4-yl)oxy)-2-fluorophenyl)amino)-7-methoxyquinazolin-6-yl)oxy)piperidin-1-yl)prop-2-en-1-one] | ≥ 1000 | 100 to 300 | 300 to 600 | 300 to 600 | ≥ 1000
C=CC(=O)Nc1cc2c(Nc3ccc(Oc4ccnc(-c5nc(C)cs5)c4)cc3F)ncnc2cc1OCC [Example 168, N-(7-ethoxy-4-((2-fluoro-4-((2-(4-methylthiazol-2-yl)pyridin-4-yl)oxy)phenyl)amino)quinazolin-6-yl)acrylamide] | 300 to 600 | ≥ 1000 | ≥ 1000 | ≥ 1000 | ≥ 1000
C=CC(=O)Nc1cc2c(Nc3ccc(Oc4ccnc(N5C[C@@H](C)O[C@@H](C)C5)c4)cc3F)ncnc2cc1OCC [Example 169, N-(4-((4-((2-((2S,6R)-2,6-dimethylmorpholino)pyridin-4-yl)oxy)-2-fluorophenyl)amino)-7-ethoxyquinazolin-6-yl)acrylamide] | ≥ 1000 | ≥ 1000 | ≥ 1000 | ≥ 1000 | ≥ 1000
C=CC(=O)N1CCC(Nc2cc3c(Nc4ccc(Oc5ccnc(N6CC[C@H](O)[C@H](F)C6)c5)cc4F)ncnc3cc2OC)CC1 [Example 170, 1-(4-((4-((2-fluoro-4-((2-((3R,4S)-3-fluoro-4-hydroxypiperidin-1-yl)pyridin-4-yl)oxy)phenyl)amino)-7-methoxyquinazolin-6-yl)amino)piperidin-1-yl)prop-2-en-1-one] | 60 to 100 | 60 to 100 | 100 to 300 | 600 to 1000 | ≥ 1000
C=CC(=O)N1CCC(Nc2cc3c(Nc4ccc(Oc5ccnc(N6CC[C@@H](O)C6)c5)cc4F)ncnc3cc2OC)CC1 [Example 173, (R)-1-(4-((4-((2-fluoro-4-((2-(3-hydroxypyrrolidin-1-yl)pyridin-4-yl)oxy)phenyl)amino)-7-methoxyquinazolin-6-yl)amino)piperidin-1-yl)prop-2-en-1-one] | 100 to 300 | 60 to 100 | 100 to 300 | 300 to 600 | ≥ 1000
C=CC(=O)N1CCC(Nc2cc3c(Nc4ccc(Oc5ccnc(N6CC[C@H](O)C6)c5)cc4F)ncnc3cc2OC)CC1 [Example 174, (S)-1-(4-((4-((2-fluoro-4-((2-(3-hydroxypyrrolidin-1-yl)pyridin-4-yl)oxy)phenyl)amino)-7-methoxyquinazolin-6-yl)amino)piperidin-1-yl)prop-2-en-1-one] | 100 to 300 | 100 to 300 | 100 to 300 | 600 to 1000 | ≥ 1000
C=CC(=O)N1CCC(Nc2cc3c(Nc4ccc(Oc5ccnc(N6CC7(CC(O)C7)C6)c5)cc4F)ncnc3cc2OC)CC1 [Example 175, 1-(4-((4-((2-fluoro-4-((2-(6-hydroxy-2-azaspiro[3.3]heptan-2-yl)pyridin-4-yl)oxy)phenyl)amino)-7-methoxyquinazolin-6-yl)amino)piperidin-1-yl)prop-2-en-1-one] | 30 to 60 | 30 to 60 | 30 to 60 | 600 to 1000 | ≥ 1000
C=CC(=O)N1CCC(Nc2cc3c(Nc4ccc(Oc5ccnc(-c6nc(C)c(C)s6)c5)cc4F)ncnc3cc2OC)CC1 [Example 176, 1-(4-((4-((4-((2-(4,5-dimethylthiazol-2-yl)pyridin-4-yl)oxy)-2-fluorophenyl)amino)-7-methoxyquinazolin-6-yl)amino)piperidin-1-yl)prop-2-en-1-one] | 30 to 60 | < 30 | < 30 | 100 to 300 | 600 to 1000

The remaining lines, values ahead:

GI50 [1] [nM] | GI50 [2] [nM] | GI50 [3] [nM] | GI50 (HCC827 cells) [nM] | GI50 (A431 cells) [nM] | Structure (SMILES)
30 to 60 | 30 to 60 | 60 to 100 | 100 to 300 | 300 to 600 | C=CC(=O)N1CCC(Nc2cc3c(Nc4ccc(Oc5ccnc(N6CCC(OC)C(C)(C)C6)c5)cc4F)ncnc3cc2OC)CC1 (centres unmarked) [Example 159, 1-(4-((4-((2-fluoro-4-((2-(4-methoxy-3,3-dimethylpiperidin-1-yl)pyridin-4-yl)oxy)phenyl)amino)-7-methoxyquinazolin-6-yl)amino)piperidin-1-yl)prop-2-en-1-one]
< 30 | < 30 | < 30 | 30 to 60 | 60 to 100 | C=CC(=O)N1CCC(Nc2cc3c(Nc4ccc(Oc5ccnc(N6CC7C(C6)C7(F)F)c5)cc4F)ncnc3cc2OC)CC1 (centres unmarked) [Example 160, 1-(4-((4-((4-((2-(6,6-difluoro-3-azabicyclo[3.1.0]hexan-3-yl)pyridin-4-yl)oxy)-2-fluorophenyl)amino)-7-methoxyquinazolin-6-yl)amino)piperidin-1-yl)prop-2-en-1-one]
< 30 | < 30 | < 30 | 100 to 300 | 300 to 600 | C=CC(=O)N1CCC(Nc2cc3c(Nc4ccc(Oc5ccnc(N6CC(C(F)(F)F)C6)c5)cc4F)ncnc3cc2OC)CC1 [Example 161, 1-(4-((4-((2-fluoro-4-((2-(3-(trifluoromethyl)azetidin-1-yl)pyridin-4-yl)oxy)phenyl)amino)-7-methoxyquinazolin-6-yl)amino)piperidin-1-yl)prop-2-en-1-one]
30 to 60 | 30 to 60 | 100 to 300 | ≥ 1000 | ≥ 1000 | C=CC(=O)N1CCC(Oc2cc3c(Nc4ccc(Oc5ccnc(N6C[C@H](OC)[C@H](OC)C6)c5)cc4F)ncnc3cc2OC)CC1 [Example 163, 1-(4-((4-((4-((2-((3R,4S)-3,4-dimethoxypyrrolidin-1-yl)pyridin-4-yl)oxy)-2-fluorophenyl)amino)-7-methoxyquinazolin-6-yl)oxy)piperidin-1-yl)prop-2-en-1-one]
< 30 | < 30 | < 30 | 300 to 600 | 600 to 1000 | C=CC(=O)N1CCC(Nc2cc3c(Nc4ccc(Oc5ccnc(N6CCC[C@@H](OC)C6)c5)cc4F)ncnc3cc2OC)CC1 [Example 164, (R)-1-(4-((4-((2-fluoro-4-((2-(3-methoxypiperidin-1-yl)pyridin-4-yl)oxy)phenyl)amino)-7-methoxyquinazolin-6-yl)amino)piperidin-1-yl)prop-2-en-1-one]
30 to 60 | 30 to 60 | 30 to 60 | 300 to 600 | 600 to 1000 | C=CC(=O)N1CCC(Nc2cc3c(Nc4ccc(Oc5ccnc(N6CCC(O)C(C)(C)C6)c5)cc4F)ncnc3cc2OC)CC1 (centres unmarked) [Example 171, 1-(4-((4-((2-fluoro-4-((2-(4-hydroxy-3,3-dimethylpiperidin-1-yl)pyridin-4-yl)oxy)phenyl)amino)-7-methoxyquinazolin-6-yl)amino)piperidin-1-yl)prop-2-en-1-one]
< 30 | < 30 | < 30 | 300 to 600 | 600 to 1000 | C=CC(=O)N1CCC(Nc2cc3c(Nc4ccc(Oc5ccnc(N6CCC(O)C(F)(F)C6)c5)cc4F)ncnc3cc2OC)CC1 (centres unmarked) [Example 172, 1-(4-((4-((4-((2-(3,3-difluoro-4-hydroxypiperidin-1-yl)pyridin-4-yl)oxy)-2-fluorophenyl)amino)-7-methoxyquinazolin-6-yl)amino)piperidin-1-yl)prop-2-en-1-one]
< 30 | < 30 | < 30 | 100 to 300 | 300 to 600 | C=CC(=O)N1CCC(Nc2cc3c(Nc4ccc(Oc5ccnc(-c6nc(C)sc6C)c5)cc4F)ncnc3cc2OC)CC1 [Example 177, 1-(4-((4-((4-((2-(2,5-dimethylthiazol-4-yl)pyridin-4-yl)oxy)-2-fluorophenyl)amino)-7-methoxyquinazolin-6-yl)amino)piperidin-1-yl)prop-2-en-1-one]
